Experiment [1] concerns the target ApoM-Fc (Homo sapiens, UniProt O95445). Description: intrinsic Trp fluorescence quenching. Type of experiment: binding.
The target of experiment [2] is S1P1-GFP (U2OS) (Homo sapiens, UniProt P21453). Description: receptor internalization, imaging. In kind it is cell-based. The conditions noted are these: agonist; […] min, […]°C.

Usually EC50 stands for the concentration giving half of the maximal effect. Read a low EC50 as greater potency.

Sequence of S1P1-GFP (U2OS) (P21453 whole entry): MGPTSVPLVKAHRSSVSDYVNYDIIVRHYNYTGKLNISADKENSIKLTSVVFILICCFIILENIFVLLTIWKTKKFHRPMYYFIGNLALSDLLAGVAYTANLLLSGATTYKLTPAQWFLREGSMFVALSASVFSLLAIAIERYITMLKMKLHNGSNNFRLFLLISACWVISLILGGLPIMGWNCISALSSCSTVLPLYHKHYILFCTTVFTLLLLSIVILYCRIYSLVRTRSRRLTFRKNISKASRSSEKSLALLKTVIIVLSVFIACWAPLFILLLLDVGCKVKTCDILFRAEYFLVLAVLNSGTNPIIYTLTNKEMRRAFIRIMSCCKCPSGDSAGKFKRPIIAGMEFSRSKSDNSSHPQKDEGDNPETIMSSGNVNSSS
Sequence of ApoM-Fc (O95445 20-188 limits assumed): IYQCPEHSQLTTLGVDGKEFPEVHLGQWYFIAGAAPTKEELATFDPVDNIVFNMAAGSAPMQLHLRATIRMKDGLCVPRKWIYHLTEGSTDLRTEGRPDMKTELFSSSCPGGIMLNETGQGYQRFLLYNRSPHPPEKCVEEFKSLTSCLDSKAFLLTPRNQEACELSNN

Turning to `CCCCCCCCCCCCC/C=C/[C@@H](O)[C@@H](N)COP(=O)(O)O` [S1P], the EC50 in experiment [1] was approximately 220 nM.

Regarding `CCCCCCCCc1ccc(CCC(N)(CO)COP(=O)(O)O)cc1` (centres unmarked) [FTY720-P], the “receptor internalization, imaging” value in experiment [2] is “lower than that induced by FTY720-P, a potent and irreversible inducer of S1P1 endocytosis”.

Values taken from article PMC5680089 (Science signaling, 2017).
